In one assay the target is KRAS effector binding (Homo sapiens, UniProt P01116). Put plainly: Effector (Raf) binding to KRAS. The class given is biochemical.
Assay [1] deals with KRAS-mediated MAPK signaling. In words: KRAS-mediated MAPK signaling. It counts as cell-based.
In a further assay the test system is cancer cells. Put plainly: Proliferation of cancer cells. The class given is cell-based.
A further assay deals with GTP-/GDP-bound HRAS (Homo sapiens, UniProt P01112). Put plainly: Binding of lead compound to GTP-/GDP-bound HRAS.
Chain of GTP-/GDP-bound HRAS (P01112 whole entry): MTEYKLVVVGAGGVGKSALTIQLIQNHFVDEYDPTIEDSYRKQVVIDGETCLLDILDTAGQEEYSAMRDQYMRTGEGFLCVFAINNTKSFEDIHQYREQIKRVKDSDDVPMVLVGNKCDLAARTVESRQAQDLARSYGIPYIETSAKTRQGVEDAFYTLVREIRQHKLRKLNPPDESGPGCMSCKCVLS
The target in another assay is GTP-/GDP-bound NRAS (Homo sapiens, UniProt P01111). In words: Binding of lead compound to GTP-/GDP-bound NRAS.
Chain of GTP-/GDP-bound NRAS (P01111 whole entry): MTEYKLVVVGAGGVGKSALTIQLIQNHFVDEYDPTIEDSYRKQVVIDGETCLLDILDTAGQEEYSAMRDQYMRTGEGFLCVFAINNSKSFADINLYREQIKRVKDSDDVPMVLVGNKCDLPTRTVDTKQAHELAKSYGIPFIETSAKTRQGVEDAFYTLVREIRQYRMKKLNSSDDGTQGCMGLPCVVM
The next assay concerns the target GTP-KRAS (Homo sapiens, UniProt P01116). In words: Binding of lead compound to GTP-KRAS. Particulars: active GTP-bound KRAS.
The target in another assay is KRAS (Homo sapiens, UniProt P01116, G12D). In words: Microscale thermophoresis (MST) binding affinity to KRAS (Table 1). Particulars: 100 nM labeled KRAS, read-out: kD (dissociation constant). The protocol:
Measurement of compound binding affinity to KKRAS using microscale thermophoresis (MST). MST is based on the movement of molecules in response to temperature gradient. […] KRAS was buffer-exchanged in the labeling buffer (40 mM HEPES, pH 7.5, 5 mM MgCl2, and 500 mM NaCl) using a spin column (provided in the kit) The concentration of the eluted protein was adjusted (10 to 20 μM) and 2-3 fold concentration of the dye (in labeling buffer) was added (200 μL final volume), The solution was incubated for 30 minutes at room temperature in the dark. Labeled KRAS was purified using the column provided in the kit or MST measurements, 16 point serial dilutions of ligands were made in MST Assay Buffer (40 mM HEPES, pH 7.5, 5 mM MgCl2, 100 mM NaCl+0.05% Tween-20+2-4% DMSO) and added to 100 nM KRAS. The solutions were loaded in capillaries and measurements were done using 20% LED power and 40% MST power. The data were fit in Igor Pro using Hill equation or the function in the instrument software.
Microscale thermophoresis (MST) assays were used to measure the affinity of lead compound analogs for KRAS. In a typical experiment, 100 nM KRAS labeled with a dye amine-reactive red NT-647 from NanoTemper) was mixed with different concentrations of ligand and incubated in a binding buffer (40 mM HEPES, pH 7.5, 5 mM MgCl2, 150 mM NaCl, 0.05% polysorbate 20, and 2% DMSO) at room temperature for 10 min before being loaded into a capillary. Thermophoresis is carried out and dissociation constant calculated by monitoring changes in fluorescence intensity. A monolith NT.115 Reader from NanoTemper can be used for MST experiments, with 40% MST and 20% LED power.
Dissociation constants (IQ)) calculated from the thermophoresis results of selected compounds according to the present disclosure are presented in Table 1 below.
Note: For FIGS. 1A-H 1 (as well as one of the curves in FIGS. 2A-I), dissociation constant (Kd) was determined using either Microscale Thermophoresis (MST) or Intrinsic Fluorescence (IF) assay. MST assay uses fluorescence to monitor movement of molecules in response to temperature gradient created by infrared laser.
On the technique in general: In MST a laser heats a spot of the sample, and binding alters the fluorescence response.

Another assay concerns the target GDP-KRAS (Homo sapiens, UniProt P01116). In words: Binding of lead compound to GDP-KRAS (inactive KRAS). Particulars: GDP-bound.

Consider one compound from US20230124492A1, “COMPOSITIONS AND METHODS FOR SUBSTITUTED 7-(PIPERAZIN-1-YL)PYRAZOLO[1,5-A]PYRIMIDINE ANALOGS AS INHIBITORS OF KRAS” (The Board of Regents of the University of Texas System, priority 2019, published 2023).

Each structure is given as a SMILES string. “Also recorded” adds a separate entry of the source.

Chain of KRAS effector binding (P01116 1-188 isoform P01116-2): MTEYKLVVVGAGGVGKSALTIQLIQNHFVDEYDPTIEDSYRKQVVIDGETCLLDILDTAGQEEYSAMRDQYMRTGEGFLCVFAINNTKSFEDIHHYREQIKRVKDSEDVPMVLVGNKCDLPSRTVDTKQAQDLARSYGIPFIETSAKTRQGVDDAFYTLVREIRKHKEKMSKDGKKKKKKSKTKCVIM
Chain of GDP-KRAS (P01116 1-188 isoform P01116-2): as above
Chain of GTP-KRAS (P01116 1-188 isoform P01116-2): as above
Chain of KRAS (P01116 whole entry G12D): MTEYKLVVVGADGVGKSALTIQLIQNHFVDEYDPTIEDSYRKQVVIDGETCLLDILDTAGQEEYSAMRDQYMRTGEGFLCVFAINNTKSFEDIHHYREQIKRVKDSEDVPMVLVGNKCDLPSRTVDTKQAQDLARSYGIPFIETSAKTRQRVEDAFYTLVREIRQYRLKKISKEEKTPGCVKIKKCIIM

As to `Cc1nn2c(N3CCN(CCO)CC3)cc(-c3ccccc3)nc2c1-c1ccccc1` [Compound C1], the “Effect on effector binding” value on KRAS effector binding is on record as “significantly reduces; also recorded: disrupt”. The “Effect on KRAS-mediated MAPK signaling / signal transduction through KRAS” value in assay [1] was “inhibits; also recorded: reduce”. Further, the “Effect on proliferation of cancer cells” value with cancer cells is “inhibit”. In addition, the “Affinity for GTP-/GDP-bound HRAS” value at GTP-/GDP-bound HRAS is “much weaker affinity; also recorded: does not bind”. Further, on GTP-/GDP-bound NRAS, the “Affinity for GTP-/GDP-bound NRAS” value was “much weaker affinity; also recorded: does not bind”. The “Affinity for GTP-KRAS” value at GTP-KRAS was “sub micromolar affinity; also recorded: high affinity”. In addition, on KRAS, the dissociation constant Kd was found to be 870 ± 180 nM. For the same compound, the “Affinity for GDP-KRAS (inactive KRAS)” value at GDP-KRAS was “much weaker affinity; also recorded: does not bind”.

Broadly, the Kd is the equilibrium constant for the complex coming apart.
